Test results: PubChem BioAssay (NCI)
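Where inhibition never reached the appropriate level, the endpoint shown equals the highest concentration tested. Otherwise, values were interpolated linearly from a five-concentration, 48-hour dose response in 96-well plates. The concentration for full growth arrest is given as TGI.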

Assays:
Assay in all cases: inhibition of tumour cell growth, NCI panel, 48 h
786-0 renal = system: 786-0 renal
A549 NSCLC = system: A549 NSCLC
ACHN renal = system: ACHN renal
BT-549 breast = system: BT-549 breast
CAKI-1 renal = system: CAKI-1 renal
CCRF-CEM leukemia = system: CCRF-CEM leukemia
COLO 205 colon = system: COLO 205 colon
DU-145 prostate = system: DU-145 prostate
EKVX NSCLC = system: EKVX NSCLC
HCC-2998 colon = system: HCC-2998 colon
HCT-116 colon = system: HCT-116 colon
HCT-15 colon = system: HCT-15 colon
HL-60(TB) leukemia = system: HL-60(TB) leukemia
HOP-62 NSCLC = system: HOP-62 NSCLC
HOP-92 NSCLC = system: HOP-92 NSCLC
HS 578T breast = system: HS 578T breast
HT29 colon = system: HT29 colon
IGROV1 ovarian = system: IGROV1 ovarian
K-562 leukemia = system: K-562 leukemia
KM12 colon = system: KM12 colon
LOX IMVI melanoma = system: LOX IMVI melanoma
M14 melanoma = system: M14 melanoma
MALME-3M melanoma = system: MALME-3M melanoma
MCF7 breast = system: MCF7 breast
MDA-MB-231 breast = system: MDA-MB-231 breast
MDA-MB-435 = system: MDA-MB-435
MDA-N = system: MDA-N
MOLT-4 leukemia = system: MOLT-4 leukemia
NCI-H226 lung = system: NCI-H226 lung
NCI-H23 lung = system: NCI-H23 lung
NCI-H460 lung = system: NCI-H460 lung
NCI-H522 lung = system: NCI-H522 lung
NCI/ADR-RES ovarian = system: NCI/ADR-RES ovarian
OVCAR-3 ovarian = system: OVCAR-3 ovarian
OVCAR-4 ovarian = system: OVCAR-4 ovarian
OVCAR-5 ovarian = system: OVCAR-5 ovarian
OVCAR-8 ovarian = system: OVCAR-8 ovarian
PC-3 prostate = system: PC-3 prostate
RPMI-8226 leukemia = system: RPMI-8226 leukemia
RXF 393 renal = system: RXF 393 renal
SF-268 CNS = system: SF-268 CNS
SF-295 CNS = system: SF-295 CNS
SF-539 CNS = system: SF-539 CNS
SK-MEL-2 melanoma = system: SK-MEL-2 melanoma
SK-MEL-28 melanoma = system: SK-MEL-28 melanoma
SK-MEL-5 melanoma = system: SK-MEL-5 melanoma
SK-OV-3 ovarian = system: SK-OV-3 ovarian
SN12C renal = system: SN12C renal
SNB-19 CNS = system: SNB-19 CNS
SNB-75 CNS = system: SNB-75 CNS
SR leukemia = system: SR leukemia
SW-620 colon = system: SW-620 colon
T-47D breast = system: T-47D breast
TK-10 renal = system: TK-10 renal
U251 CNS = system: U251 CNS
UACC-257 melanoma = system: UACC-257 melanoma
UACC-62 melanoma = system: UACC-62 melanoma
UO-31 renal = system: UO-31 renal

Measured: TGI

NS(=O)(=O)c1ccc(NNc2c3ccccc3nc3c(C(=O)Nc4ccc(S(=O)(=O)Nc5ncccn5)cc4)cccc23)cc1
> 25 µM: all assays above
